In patent US20090306012A1, “THERAPEUTIC PROTOCOLS” (priority 2001, published 2009):

Columns and labels:
[1] = system: neutrophils; test: Phase I clinical trial of doxorubicin + HA (HyDox) in advanced cancer: toxicity, neutrophil counts; type: in vivo, patients
Source text: The eligibility criteria, for inclusion in this study, were as follows: Patients must have advanced or metastatic cancer, histologically or cytologically confirmed. Patients were not to have had previous chemotherapy or were to have had no more than one prior chemotherapy regime and were not to have had prior anthracyclines. Patients were to be aged between 18 and 75 years with ambulatory performance status and adequate bone marrow, liver and renal function.
The treatment plan provided that, in the first chemotherapy cycle, patients be randomized to receive Dox alone or Dox plus HA. The converse applied in the second cycle. In the subsequent four cycles, patients received Dox plus HA. This allowed each patient to act as his/her own control in the toxicity analysis in the first two cycles, reducing the possibility of inter-patient variability affecting result interpretation.
Injectable sodium chloride was obtained from Baxter Healthcare, Sydney, Australia, as supplied as a 500 ml infusion bag.
Therefore, the initial dose level was 30 mg/m^2, the next 45 mg/m^2 and the next 60 mg/m^2.

[2] = In vivo cytotoxicity (I): general toxicity (survival); details: 24 mg/kg Dox, single iv bolus, 14 days
Procedure: Male F1 mice (C57×CBA; 11-13 weeks old), used for in vivo studies, were obtained from The Animal Central Division (Monash University, Victoria, Australia). The mice were distributed at random into each treatment group (6 per treatment group) and allowed to acclimatize for 2-3 weeks before commencing the study. […] Before a treatment group was started, blood (200 μL) from each experimental animal was collected by retroorbital sinus bleed and immediately transferred to tube containing EDTA, gently flick mixed and stored on ice until analysis. This was taken as day 0, after which the mice were given a single bolus intravenous injection via tail vein with corresponding control, drug, or HA/drug combinations. The mice were then sequentially bled on days 1, 4, 7, 10 and 14 by the aforementioned method. All blood samples were analyzed for white blood cell composition in an Adiva 120 Differential Coulter Counter (Bayer Diagnostics, USA). Throughout the duration of the study, mouse mass, food intake and general activity levels were recorded on a daily basis. On day 14, mice were sacrificed by cervical dislocation and the heart, lungs, liver, spleen, kidneys, stomach, intestines and testicles removed and immediately fixed in 10% v/v formalin in phosphate buffered saline.

[3] = system: peripheral blood neutrophils; test: In vivo cytotoxicity (II): daily blood neutrophil and differential counts; set-up: species or system Male F1 mice (C57×CBA)
Procedure: For each treatment dosage a total of 6 groups (n=8 mice per group) were used. Data from each treatment group were established by staggering results of groups of 6 (counted individually), sampling each group every 4 days so that a daily assessment could be established. Each group was treated as described above, prior to the drug administration. -Throughout this study, blood was collected and analyzed for neutrophil content as outlined in previous examples.
Again, to normalize the data for comparison between treatments, neutropenia was expressed as a percentage of neutrophils on day 0 (before drug administration).

[4] = system: Glutathione peroxidase; details: chronic exposure, vs control groups
Procedure: One week after the last injection, the rats were killed by decapitation and internal organs were fixed in 10% v/v formalin in phosphate buffered saline. Prior to tissue fixation, portions of the kidney, liver, and skeletal muscle and heart were quickly removed and placed in tubes on ice. The tissue was either used immediately or stored at −80° C. until assayed. Each sample was minced into small pieces, washed vigorously in two changes of ice cold 0.25 M sucrose containing 1 mM EDTA, then washed in 50 mM potassium phosphate buffer pH 7.8 containing 0.1 mM EDTA prior to recording the tissues ‘wet’ weight. The tissue was then resuspended in 2 mL of ice-phosphate-EDTA buffer and homogenized on ice for three 5-second bursts over 5 minutes using an Ultraturrax homogenizer. The fine suspension was made up to a final volume of 4 mL with the phosphate-EDTA buffer and used for the enzyme and GSH assays described below.
From the 4 mL tissue homogenate, 1 mL was transferred to a clean 1.5 mL Eppendorf and stored on ice. […]
SOD activity was determined measuring the Cytochrome c by the method according to McCord & Fridovich (J. Biol. Chem. 244(22): 6056-6063, 1969). GP activity was assessed by an indirect coupled assay (Paglia & Valentine, J. Lab. Clin. Med. 70(1): 158-169, 1967). […]
For control purposes, antioxidant loading from hepatic, renal and skeletal muscle extracts was also determined.

[5] = system: reduced glutathione (GSH); test: In vivo cardiotoxicity (II): tissue reduced glutathione (GSH) level; set-up: species or system Adult female spontaneously hypertensive rats; details: chronic exposure, vs control values
Procedure: For the GSH assay, 0.25 mL of 25% w/v metaphosphoric acid was added to the 1 mL of the original crude homogenate, mixed thoroughly and incubated on ice for 15 minutes. The protein precipitate was pelleted by centrifugation at 10,000 g for 10 minutes at 4° C. The clear supernatant was transferred to a clean tube and either stored at −70° C. for no longer than three days or GSH levels were directly determined. The level of GSH was determined using a fluorometric assay using 0-phthalaldehyde as described by Cohn & Lyle (Anal. Biochem. 14(3): 434-440, 1966).
(§1) Group 4 received no treatment.

[6] = system: cardiac myocytes; test: In vivo cardiotoxicity (II): myocardial pathology by transmission electron microscopy (vacuolated myocytes); set-up: species or system Adult female spontaneously hypertensive rats; details: cumulative Dox 13 mg/kg, 12 weeks
Source text: (§2) Immediately after animal sacrifice, a traverse section of the intraventricular septum was dissected from the heart and fixed in 2% glutaraldehyde, 2% paraformaldehyde and 4% glucose in phosphate buffer. Standard post-buffering, osmication and processing were followed. Specimens were examined with a Philip's electron microscope and the frequency and severity of cardiac damage in the myocardial cells were graded according to the method according to Billingham et al. (Can. Treat. Rep. 62: 865-872, 1978). In brief, blocks were selected that consisted predominantly of transected cardiac myocytes.
as §1
For analyses, tissue processing and assays of antioxidant enzymes and GSH, were carried out as described in Example 2. Analysis of cardiac damage by transmission electron microscopy was also carried out as described in Example 2.
To minimize anatomical variation across treatment groups, samples of the lateral border of the left ventricle were processed for EM analysis.

[7] = system: cardiac troponin T; test: In vivo cardiotoxicity (I): serum levels of cardiac troponin-T (cTnT); set-up: species or system Adult female Wistar rats; details: weekly iv […] Dox, rats
Procedure: (§3) Group 6 received no treatment.
Prior to the commencement of the study, blood (500 μL) was collected from each rat via a tail vein bleed procedure. Blood was collected in 1.5 mL Capiject tube and allowed to clot for a minimum of 30 minutes. […] After pre-bleeds, each experimental animal was injected with respective drug combination or control treatment and 24 hours after administration the rats were tail-bled and processed as described above. Thereafter, animals were injected with drug combinations at weekly intervals for 12 weeks, and blood was collected 24 hours after treatment.

[8] = In vivo cytotoxicity (I): metabolic stress (daily body weight); set-up: species or system Male F1 mice (C57×CBA)
Source text: All treatment groups were monitored for weight loss on a daily basis. At the end of the study the data were expressed as percentage of original body mass and graphed in this maimer.

[9] = system: cardiac myocytes; test: In vivo cardiotoxicity (I): cardiac damage by electron microscopy; set-up: species or system Adult female Wistar rats; details: chronic exposure, rats
Source text: as §3, §2

With `COc1cccc2c1C(=O)c1c(O)c3c(c(O)c1C2=O)C[C@@](O)(C(=O)CO)C[C@@H]3O[C@H]1C[C@H](N)[C@H](O)[C@H](C)O1` [Dox, doxorubicin] the “Neutrophils as % of Day 1” value ([1]; Patient 1, Cycle 2, 30 mg/m2, day 1) was 100%, the “Neutrophils as % of Day 1” value ([1]; Patient 1, Cycle 2, 30 mg/m2, day 6) was 100% and the “Neutrophils as % of Day 1” value ([1]; Patient 1, Cycle 2, 30 mg/m2, day 8) was 109%. The “Neutrophils as % of Day 1” value ([1]; Patient 1, Cycle 2, 30 mg/m2, day 10) was 109%, the “Neutrophils as % of Day 1” value ([1]; Patient 1, Cycle 2, 30 mg/m2, day 13) was 83% and the “Neutrophils as % of Day 1” value ([1]; Patient 1, Cycle 2, 30 mg/m2, day 15) was 57%. For the same molecule, the “Neutrophils as % of Day 1” value ([1]; Patient 1, Cycle 2, 30 mg/m2, day 20) was 57%, the “Neutrophils as % of Day 1” value ([1]; Patient 1, Cycle 2, 30 mg/m2, day 21) was 74% and the “Neutrophils as % of Day 1” value ([1]; Patient 1, Cycle 3, 30 mg/m2, day 1) was 100%. For the same molecule, the “Neutrophils as % of Day 1” value ([1]; Patient 2, Cycle 1, 30 mg/m2, day 1) was 100%, the “Neutrophils as % of Day 1” value ([1]; Patient 2, Cycle 1, 30 mg/m2, day 4) was 120% and the “Neutrophils as % of Day 1” value ([1]; Patient 2, Cycle 1, 30 mg/m2, day 8) was 132%. For the same molecule, the “Neutrophils as % of Day 1” value ([1]; Patient 2, Cycle 1, 30 mg/m2, day 10) was 78%, the “Neutrophils as % of Day 1” value ([1]; Patient 2, Cycle 1, 30 mg/m2, day 15) was 54% and the “Neutrophils as % of Day 1” value ([1]; Patient 2, Cycle 1, 30 mg/m2, day 17) was 40%. For the same molecule, the “Neutrophils as % of Day 1” value ([1]; Patient 2, Cycle 1, 30 mg/m2, day 21) was 86%, the “Neutrophils as % of Day 1” value ([1]; Patient 2, Cycle 3, 30 mg/m2, day 1) was 100% and the “Neutrophils as % of Day 1” value ([1]; Patient 5, Cycle 1, 30 mg/m2, day 1) was 100%. For the same molecule, the “Neutrophils as % of Day 1” value ([1]; Patient 5, Cycle 1, 30 mg/m2, day 4) was 78%, the “Neutrophils as % of Day 1” value ([1]; Patient 5, Cycle 1, 30 mg/m2, day 7) was 70% and the “Neutrophils as % of Day 1” value ([1]; Patient 5, Cycle 1, 30 mg/m2, day 9) was 73%. For the same molecule, the “Neutrophils as % of Day 1” value ([1]; Patient 5, Cycle 1, 30 mg/m2, day 12) was 49%, the “Neutrophils as % of Day 1” value ([1]; Patient 5, Cycle 1, 30 mg/m2, day 14) was 38% and the “Neutrophils as % of Day 1” value ([1]; Patient 5, Cycle 1, 30 mg/m2, day 16) was 32%. For the same molecule, the “Neutrophils as % of Day 1” value ([1]; Patient 5, Cycle 1, 30 mg/m2, day 19) was 38%, the “Neutrophils as % of Day 1” value ([1]; Patient 5, Cycle 1, 30 mg/m2, day 21) was 59% and the “Neutrophils as % of Day 1” value ([1]; Patient 5, Cycle 3, 30 mg/m2, day 1) was 100%. The “Neutrophils as % of Day 1” value ([1]; Patient 7, Cycle 1, 45 mg/m2, day 1) was 100%, the “Neutrophils as % of Day 1” value ([1]; Patient 7, Cycle 1, 45 mg/m2, day 4) was 46% and the “Neutrophils as % of Day 1” value ([1]; Patient 7, Cycle 1, 45 mg/m2, day 8) was 56%. For the same molecule, the “Neutrophils as % of Day 1” value ([1]; Patient 7, Cycle 1, 45 mg/m2, day 10) was 41%, the “Neutrophils as % of Day 1” value ([1]; Patient 7, Cycle 1, 45 mg/m2, day 12) was 35% and the “Neutrophils as % of Day 1” value ([1]; Patient 7, Cycle 1, 45 mg/m2, day 15) was 19%. For the same molecule, the “Neutrophils as % of Day 1” value ([1]; Patient 7, Cycle 1, 45 mg/m2, day 17) was 14%, the “Neutrophils as % of Day 1” value ([1]; Patient 7, Cycle 1, 45 mg/m2, day 19) was 21% and the “Neutrophils as % of Day 1” value ([1]; Patient 7, Cycle 3, 45 mg/m2, day 1) was 100%. For the same molecule, the “Neutrophils as % of Day 1” value ([1]; Patient 8, Cycle 2, 45 mg/m2, day 1) was 100%, the “Neutrophils as % of Day 1” value ([1]; Patient 8, Cycle 2, 45 mg/m2, day 4) was 84% and the “Neutrophils as % of Day 1” value ([1]; Patient 8, Cycle 2, 45 mg/m2, day 8) was 85%. The “Neutrophils as % of Day 1” value ([1]; Patient 8, Cycle 2, 45 mg/m2, day 10) was 39%, the “Neutrophils as % of Day 1” value ([1]; Patient 8, Cycle 2, 45 mg/m2, day 12) was 81% and the “Neutrophils as % of Day 1” value ([1]; Patient 8, Cycle 2, 45 mg/m2, day 15) was 62%. For the same molecule, the “Neutrophils as % of Day 1” value ([1]; Patient 10, Cycle 1, 60 mg/m2, day 1) was 100%, the “Neutrophils as % of Day 1” value ([1]; Patient 10, Cycle 1, 60 mg/m2, day 4) was 93% and the “Neutrophils as % of Day 1” value ([1]; Patient 10, Cycle 1, 60 mg/m2, day 6) was 63%. For the same molecule, the “Neutrophils as % of Day 1” value ([1]; Patient 10, Cycle 1, 60 mg/m2, day 8) was 33%, the “Neutrophils as % of Day 1” value ([1]; Patient 10, Cycle 1, 60 mg/m2, day 10) was 4% and the “Neutrophils as % of Day 1” value ([1]; Patient 10, Cycle 1, 60 mg/m2, day 13) was 3%. For the same molecule, the “Neutrophils as % of Day 1” value ([1]; Patient 10, Cycle 1, 60 mg/m2, day 17) was 20%, the “Neutrophils as % of Day 1” value ([1]; Patient 10, Cycle 1, 60 mg/m2, day 20) was 47% and the “Neutrophils as % of Day 1” value ([1]; Patient 12, Cycle 1, 60 mg/m2, day 1) was 100%. For the same molecule, the “Neutrophils as % of Day 1” value ([1]; Patient 12, Cycle 1, 60 mg/m2, day 4) was 124%, the “Neutrophils as % of Day 1” value ([1]; Patient 12, Cycle 1, 60 mg/m2, day 7) was 95% and the “Mice that survived until the end of the study” value [2] was 2 mice. The “Duration of nadir neutropenia” value ([3]; 12 mg/kg) was 2 days, the “Onset of nadir neutropenia” value ([3]; 12 mg/kg) was 4 days and the “Duration of nadir neutropenia before recovery” value ([3]; 16 mg/kg) was > 48 h. The “Cardiac glutathione peroxidase levels” value [4] was “equally increased”, the “Level of hepatic GSH” value [5] was “remained unchanged” and the “Myocyte vacuolation compared with the HyDox group” value [6] was “almost two-three-fold greater”. For the same molecule, the “Cumulative dose of Dox at which cardiotoxicity (serum troponin T release) begins” value [7] was 9 mg/kg, the “Maximum weight loss, % of original body mass” value ([8]; 9 mg/kg Dox) was ~−10% and the “Original body mass lost” value ([8]; 12 mg/kg Dox, by day 11) was ~13%. The Original weight lost ([8]; 24 mg/kg dosage group, by day 7) was ~25% and the “Appearance of myocytes in the heart (electron micrographs)” value [9] was “vacuolated myocytes”.
